The values below come from patent US9663528B2, “Substituted 1,2,3,4,6,8,12,12a-octahydro-1,4-methanodipyrido[1,2-a:1',2'-d]pyrazines and methods for treating viral infections” (priority 2012, dated 2017).

Series [1] deals with PXR (Homo sapiens (Human), UniProt O75469). In words: Human PXR activation assay (luciferase reporter gene assay, DPX2 cells). The format is cell-based. The following applies: human. Here is the method: A stably transformed tumor cell line (DPX2) was plated on 96-well microtiter plates. DPX2 cells harbor the human PXR gene (NR112) and a luciferase reporter gene linked to two promoters identified in the human CYP3A4 gene, namely XREM and PXRE. […] The number of viable cells was determined and the reporter gene activity was assessed. Positive control: […]
Sequence of PXR (O75469 whole entry): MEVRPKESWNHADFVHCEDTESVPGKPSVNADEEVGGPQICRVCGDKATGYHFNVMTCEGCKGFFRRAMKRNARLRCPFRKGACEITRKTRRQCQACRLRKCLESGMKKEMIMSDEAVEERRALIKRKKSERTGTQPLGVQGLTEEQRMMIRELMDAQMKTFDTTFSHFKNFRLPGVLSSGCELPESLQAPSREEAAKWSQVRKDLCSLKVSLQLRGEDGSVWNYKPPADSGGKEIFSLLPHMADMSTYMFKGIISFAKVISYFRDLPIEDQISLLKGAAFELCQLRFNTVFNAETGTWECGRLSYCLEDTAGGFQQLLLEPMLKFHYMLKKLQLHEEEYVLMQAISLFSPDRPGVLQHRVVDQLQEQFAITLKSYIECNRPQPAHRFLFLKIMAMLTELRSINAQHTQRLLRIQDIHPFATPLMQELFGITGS
Background: Reporter assays use an easily measured gene product as a stand-in for the process of interest.

In series [2] the target is OCT2 (Homo sapiens (Human), UniProt O15244). In words: OCT2 inhibition assay (14C-TEA uptake, OCT2-transfected MDCKII cells). Format: cell-based. Here is the method:
On assay day, cells were trypsinized and resuspended in Krebs-Henseleit Buffer (KHB), pH 7.4 at […]. Cells were preincubated for 15 min in assay plate before addition of test compound or substrate. Test compounds were serially diluted in DMSO and then spiked (2 μL) into in 0.4 mL KHB buffer containing wild-type or OCT2-transfected cells and incubated for 10 minutes. Assay was initiated with the addition of 0.1 mL of 100 μM ^14C-TEA in KHB buffer (20 μM final concentration after mixing). The concentration of TEA is based on the Km. After 10 minutes of incubation, the assay mixture was quenched with addition of 0.5 mL of ice-cold 1×PBS buffer. Samples were then centrifuged at 1000 rpm for 5 min and supernatants were removed. Wash steps were repeated four times with ice-cold PBS. Finally, the cell pellets were lysed with 0.2N NaOH and let sit at room temperature for at least 30 min to ensure complete lysis. Samples were then counted on liquid scintillation counter and dpm counts were used to perform the following calculations.

The nature of series [3]: in vitro. The following applies: human.

Molecules are shown by their SMILES. Where two headings read alike, the source gives them in different places.

Sequence of OCT2 (O15244 whole entry): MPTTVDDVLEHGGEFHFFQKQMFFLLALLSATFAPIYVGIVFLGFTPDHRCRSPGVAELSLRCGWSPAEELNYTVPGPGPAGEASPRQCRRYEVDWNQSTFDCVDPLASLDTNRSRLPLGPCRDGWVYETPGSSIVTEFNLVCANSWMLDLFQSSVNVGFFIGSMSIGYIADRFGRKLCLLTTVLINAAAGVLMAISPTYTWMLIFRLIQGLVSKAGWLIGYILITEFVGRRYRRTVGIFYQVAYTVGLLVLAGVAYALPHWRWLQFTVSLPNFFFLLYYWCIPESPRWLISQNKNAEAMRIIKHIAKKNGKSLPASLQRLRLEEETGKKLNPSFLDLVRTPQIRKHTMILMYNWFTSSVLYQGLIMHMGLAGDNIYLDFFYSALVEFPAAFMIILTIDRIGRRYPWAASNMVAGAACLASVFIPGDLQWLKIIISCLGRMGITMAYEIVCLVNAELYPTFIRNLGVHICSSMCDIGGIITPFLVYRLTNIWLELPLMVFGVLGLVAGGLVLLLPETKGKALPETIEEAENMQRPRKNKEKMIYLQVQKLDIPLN

For orientation: Emax means the size of the effect at its maximum, as opposed to the concentration needed. The IC50 is the concentration that gives 50% inhibition. `O=C(NCc1c(F)cc(F)cc1F)c1cn2c(c(O)c1=O)C(=O)N1[C@@H]3C[C@@H](C[C@H]3F)[C@@H]1C2` [Compound 82, (1S,3R,4R,12aR)-3-fluoro-7-hydroxy-6,8-dioxo-N-(2,4,6-trifluorobenzyl)-1,2,3,4,6,8,12,12a-octahydro-1,4-methanodipyrido[1,2-a:1′,2′-d]pyrazine-9-carboxamide] returned an Emax at 24 h, 15 µM in series [1] of 1%. This compound also showed an IC50 in series [2] of 10 µM. Also, the CC50 at 5 days in series [3] (CC50 nM in MT-4) is 30400 nM.
For `C[C@H]1C[C@@H]2C[C@H]1N1C(=O)c3c(O)c(=O)c(C(=O)NCc4c(F)cc(F)cc4F)cn3C[C@@H]21` [Compound 99, (1R,3S,4R,12aR)-7-hydroxy-3-methyl-6,8-dioxo-N-(2,4,6-trifluorobenzyl)-1,2,3,4,6,8,12,12a-octahydro-1,4-methanodipyrido[1,2-a:1′,2′-d]pyrazine-9-carboxamide], in that order: 17%, 1.51 µM and 8480 nM.
For `O=C(NCc1ccc(F)cc1F)c1cn2c(c(O)c1=O)C(=O)N1[C@H]3CC[C@H](CC3)[C@H]1C2` [Compound 100, (1R,4R,12aS)-N-(2,4-difluorobenzyl)-7-hydroxy-6,8-dioxo-1,2,3,4,6,8,12,12a-octahydro-1,4-ethanodipyrido[1,2-a:1′,2′-d]pyrazine-9-carboxamide], the maximal effect (Emax) at 24 h, 15 µM in series [1] (15 μM, relative to maximum fold induction by 10 or 20 μM rifampicin, DPX2 cells, 24 hours, read-out: % Emax at 15 μM) came to 45%. The IC50 in series [2] (OCT2 mediated uptake of 14C-TEA (20 μM), MDCKII cells, read-out: IC50) turned out to be 0.45 µM. This compound had a CC50 at 5 days in series [3] (MT-4 cells, mock-infected, CC50 nM in MT-4, MT-4 cells, 5 days incubation) of 11600 nM.
